Assay results taken from patent EP4635500A1, “THERAPEUTIC AGENT FOR BACTERIAL INFECTION” (Sumitomo Pharma Co., Ltd., priority 2022, dated 2024).
Read-outs that look alike come from different tables or passages of the source.

Experiments:
Assay in all cases: MIC and MBC, broth microdilution (Example 4, Table 3)
Type in all cases: cell-based
[1] = tested on: Klebsiella pneumoniae
[2] = tested on: Escherichia coli
[3] = tested on: Serratia marcescens; details: Serratia marcescens CDC-124 (SME-3)
[4] = tested on: Enterobacter cloacae complex; details: Enterobacter cloacae complex CDC-164 (NMC-A)
[5] = tested on: Morganella morganii; details: Morganella morganii CDC-57 (NDM-1)
[6] = tested on: Enterobacter aerogenes
[7] = tested on: Acinetobacter baumannii
[8] = Escherichia coli CDC-150 (NDM-5)
[9] = Acinetobacter baumannii CDC-303 (OXA-23, OXA-66)

CC(C)(O/N=C(\C(=O)N[C@@H]1C(=O)N2C(C(=O)[O-])=C(C[n+]3ccccc3)CS[C@H]12)c1csc(N)n1)C(=O)O [CAZ, ceftazidime]
128 µg/mL: MBC ([2]; ATCCBAA2340, Escherichia coli ATCC BAA-2340 (KPC-3), read-out: MBC) | MIC ([2]; Escherichia coli, ATCCBAA2340) | MBC ([6]; Klebsiella aerogenes) | MIC ([6]; Klebsiella aerogenes) | MBC ([7]; Acinetobacter baumannii, Acinetobacter baumannii CDC-303 (OXA-23, OXA-66))
64 µg/mL: MBC [3] | MIC [7, 9] | MIC ([7]; Acinetobacter baumannii CDC-304 (OXA-66, OXA-72), read-out: MIC) | MBC ([7]; Acinetobacter baumannii, Acinetobacter baumannii CDC-304 (OXA-66, OXA-72))
2: MBC/MIC ratio [7, 9]
> 128 µg/mL: MIC ([1]; ATCCBAA2470, Klebsiella pneumoniae ATCC BAA-2470 (NDM-1), read-out: MIC) | MIC ([1]; Klebsiella pneumoniae) | MIC ([1]; Klebsiella pneumoniae NCTC13440 (VIM-1), read-out: MIC) | MIC ([1]; Klebsiella pneumoniae, ATCCBAA2344) | MBC ([1]; Klebsiella pneumoniae, ATCCBAA2344, Klebsiella pneumoniae ATCC BAA-2344 (KPC-2)) | MBC ([1]; Klebsiella pneumoniae, ATCCBAA2470, Klebsiella pneumoniae ATCC BAA-2470 (NDM-1)) | MBC ([1]; Klebsiella pneumoniae, Klebsiella pneumoniae CDC-112 (KPC-3)) | MBC ([1]; Klebsiella pneumoniae, Klebsiella pneumoniae CDC-505 (NDM-1)) | MBC ([1]; Klebsiella pneumoniae, Klebsiella pneumoniae KUB3607 (IMP-1)) | MBC ([1]; Klebsiella pneumoniae, NCTC13440, Klebsiella pneumoniae NCTC13440 (VIM-1)) | MBC ([2]; ATCCBAA2469, Escherichia coli ATCC BAA-2469 (NDM-1), read-out: MBC) | MIC ([2]; ATCCBAA2469, Escherichia coli ATCC BAA-2469 (NDM-1), read-out: MIC) | MBC ([2]; Escherichia coli CDC-162 (NDM-7), read-out: MBC) | MIC ([2]; Escherichia coli CDC-162 (NDM-7), read-out: MIC) | MBC ([2]; Escherichia coli NCTC13476 (IMP-1), read-out: MBC) | MIC ([2]; Escherichia coli NCTC13476 (IMP-1), read-out: MIC) | MBC [5] | MIC [5] | MBC ([7]; Acinetobacter baumannii, Acinetobacter baumannii CDC-33 (NDM-1, OXA-94)) | MIC ([7]; Acinetobacter baumannii, Acinetobacter baumannii CDC-33 (NDM-1, OXA-94), read-out: MIC) | MBC ([7]; Acinetobacter baumannii, Acinetobacter baumannii CDC-101 (OXA-24, OXA-65)) | MIC ([7]; Acinetobacter baumannii, Acinetobacter baumannii CDC-101 (OXA-24, OXA-65), read-out: MIC)
0.25 µg/mL: MIC [3]
32 µg/mL: MBC [4] | MIC [4]
>128 µg/mL: MIC ([1]; Klebsiella pneumoniae CDC-505 (NDM-1)) | MIC ([1]; Klebsiella pneumoniae KUB3607 (IMP-1)) | MBC [2, 8] | MIC [2, 8]
0.5 µg/mL: MBC ([1]; Klebsiella pneumoniae, ATCCBAA2524, Klebsiella pneumoniae ATCC BAA-2524 (OXA-48)) | MIC ([1]; Klebsiella pneumoniae, ATCCBAA2524, Klebsiella pneumoniae ATCC BAA-2524 (OXA-48), read-out: MIC)
1: MBC/MIC ratio ([1]; Klebsiella pneumoniae ATCC BAA-2524 (OXA-48)) | MBC/MIC ratio [2] | MBC/MIC ratio [4] | MBC/MIC ratio ([6]; Enterobacter aerogenes CDC-161 (IMP-4)) | MBC/MIC ratio ([7]; Acinetobacter baumannii CDC-304 (OXA-66, OXA-72))
256: MBC/MIC ratio [3]
